Series [1] concerns the target T1, hTGR5 (Homo sapiens (Human), UniProt Q8TDU6). Briefly: HTR-FRET intracellular cAMP assay in NCI-H716 cells. Type of series: cell-based. The conditions noted are these: Table 1; Ref LCA.
In series [2] the target is T1, hTGR5. Briefly: Cross species TGR5 activity, CHO cells, human. Type of series: cell-based.
A further series concerns the target mTGR5 (Mus musculus (Mouse), UniProt Q80SS6). Kind of series: Cross species TGR5 activity, CHO cells, mouse. Type of series: cell-based.
The next series deals with rTGR5 (Rattus norvegicus (Rat), UniProt Q80T02). Briefly: Cross species TGR5 activity, CHO cells, rat. It counts as cell-based.
For another series, the system named is dTGR5. Kind of series: Cross species TGR5 activity, CHO cells, dog. Type of series: cell-based.
For series [3], the system named is nuclear receptors LXRP, PXR, CAR, PPARα, PPARγ, RAR, RARα, VDR, TR, PR, RXR, GR, and ER. Kind of series: Nuclear receptor selectivity profile (AlphaScreen). It counts as biochemical. The conditions noted are these: for Activation of nuclear receptor panel, agonist mode: dose response to 200 μM; for Activity on nuclear receptor panel, antagonist mode: fixed concentration at 10 μM. How it is done: Using the AlphaScreen assay, the selectivity of a compound of the invention against the following nuclear receptors involved in the metabolic pathways can be evaluated: LXRP, PXR, CAR, PPARα, PPARα, PPARγ, RAR, RARα, VDR, TR, PR, RXR, GR, and ER.
Compounds L1, 3, 5, 6 and 7 were tested against the panel of available nuclear receptor in both agonist and antagonist mode.
In general terms: In Alpha technology, singlet oxygen from a donor bead excites a nearby acceptor bead.

Series [4] concerns FXR target genes: BSEP, SHP, OSTβ and CYP7A1. Briefly: FXR target gene panel, quantitative RT-PCR in HepG2 cells. Type of series: cell-based. The note with it: stimulation for 18 hours. The protocol:
To evaluate the capacity of a compound of the invention to modulate FXR target genes, quantitative RT-PCR assays are performed. HepG2 cells are selected as a relevant cell line to determine whether a compound of the invention can regulate the endogenous FXR genetic network. The ability of a compound of the invention to induce FXR target genes is assessed by isolating total RNA from cells treated overnight with 1 μM of compounds A, B, and a compound of the invention.
FXR regulates the expression of several target genes involved in BA homeostasis. Briefly, FXR plays a central role in several metabolic pathways, including i.e., lipid metabolism, bile-acids metabolism, and carbohydrate metabolism. Regarding gene expression profiling, the genes encoding proteins involved in lipid metabolism include, e.g., APOCII, APOE, APOAI, SREBP-1C, VLDL-R, PLTP, and LPL; the genes encoding proteins involved in bile-acids metabolism include, e.g., OSTα/β, BSEP, MRP2, SHP, CYP7A1, FGF19, SULT2A1, and UGT2B4; and the genes encoding proteins involved in carbohydrate metabolism include, e.g., PGCla, PEPCK, and GLUT2. FXR target genes: BSEP, SHP, OSTβ and CYP7A1 were evaluated following stimulation of Compounds 3, 5, 6, and 7 on HepG2 cells for 18 hours. Compound L1 was used as a control.

Series [5] concerns HepG2 cells. Kind of series: In-vitro cytotoxicity, ATP content. It counts as cell-based. The text has this:
To evaluate in-vitro cytotoxicity of a compound of the invention, two different assay methods are employed. The assays evaluate cell viability by measuring ATP levels and cytotoxicity by measuring LDH release. […] It has been called the “molecular unit of currency” when it comes to intracellular energy transfer.
(§1) An additional method to determine the viability of cells is to detect the integrity of the membrane that defines the cellular compartmentalization. Measuring the leakage of components out of the cytoplasm, in damaged cell membranes, indicates loss of membrane integrity, and LDH release is the method used to determine common toxicity in cells. HepG2 cells are treated with a compound of the invention, and serial dilutions are performed. LCA dilutions are added to the plated cells as assay controls together with no-cell and untreated cells. The assay is performed in triplicate for each test compound concentration.

The target in a further series is CYP1A2 (Homo sapiens (Human), UniProt P05177). Kind of series: CYP450 inhibition, fluorescent substrate, recombinant baculosomes. Type of series: in vitro ADME. How it is done: (§2) To evaluate the potential of a compound of the invention for drug-drug interactions, the six main CYP450 isoforms (CYP1A2, CYP2C9, CYP2C19, CYP2D6, CYP2E1, CYP3A4) are investigated (Obach, et al., J Pharmacol. Exp. Ther, 2006, 316, 336-348).
(§3) To determine interaction between a compound of the invention and cytochrome P450 enzymes, the compound of the invention is analyzed by its capacity to inhibit (or not) the production of a fluorescent signal, using recombinant CYP450 proteins (baculosomes; Invitrogen), substrates and inhibitors (Bidstrup, et al., Br J Clin. Pharmacol, 2003, 56, 305-14). As a positive control, a selective inhibitor for each CYP450 isoform is tested in the same plate.

The target of a further series is CYP2C19 (Homo sapiens (Human), UniProt P33261). Described as above. It counts as in vitro ADME. How it is done: as §2, §3
In another series the target is CYP2C9 (Homo sapiens (Human), UniProt P11712). Described as above. It counts as in vitro ADME. How it is done: as §2, §3
The target in another series is CYP2D6 (Homo sapiens (Human), UniProt P10635). The series is described as above. Type of series: in vitro ADME. How it is done: as §2, §3
A further series concerns the target CYP2E1 (Homo sapiens (Human), UniProt P05181). The series is described as above. Type of series: in vitro ADME. How it is done:
as §2, §3

Another series deals with CYP3A4 (Homo sapiens (Human), UniProt P08684). The series is described as above. Type of series: in vitro ADME. How it is done: as §2, §3
Another series deals with hERG potassium channel (Homo sapiens (Human), UniProt Q12809). Kind of series: biochemical. The conditions noted are these: for hERG potassium channel inhibition (in words): Table 7 footnote. The source says:
The assay is based on the assumption that the hERG potassium channel activity contributes to the resting membrane potential in permanently transfected cells, and thus a block of hERG channels should result in a depolarization of the cell membrane. The assay is designed to identify potential hERG channel blockers by producing data that accurately correlates with patch-clamp electrophysiology studies.
Membrane preparations from Chinese hamster ovary cells stably transfected with hERG potassium channel are used to evaluate the potential inhibitory effect of a compound of the invention on this channel using the Predictor™ fluorescence polarization assay. Reduction of membrane polarization as a result of inhibition of the hERG potassium channel is directly correlated with a reduction of the fluorescence polarization (FP).
An assay window more than 100 mP (millipolarization) is considered good. The non-linear regression curves are obtained by GraphPad Prism (GraphPad Software Inc.) analysis, to calculate the IC50 values.
A general note: The hERG channel carries a current that helps repolarise heart muscle cells.

Series [6] can be described thus: Critical micellar concentration. It counts as physicochemical. The conditions noted are these: determined in […] NaCl water solution. The protocol: (§4) Physiochemical properties of a compound of the invention such as water solubility, critical micellar concentration, surface tension, and LogPA were determined using methods known in the art.
Series [7] can be described thus: 1-octanol-water partition coefficient of ionized species. It counts as physicochemical. How it is done: as §4
For series [8], the system named is HepG2 cells. Kind of series: In-vitro cytotoxicity, membrane integrity (LDH release). Type of series: cell-based.
Text: To evaluate in-vitro cytotoxicity of a compound of the invention, two different assay methods are employed. The assays evaluate cell viability by measuring ATP levels and cytotoxicity by measuring LDH release. Adenosine Triphosphate (ATP) nucleotide represents the source of energy at the basic molecular level, as it is a multifunctional molecule that is used in every cell as a coenzyme and is an integral part of the mitochondrial DNA (Kangas, et al., Medical Biology, 1984, 62, 338-343; Crouch, et al., J Immunol. Methods, 1993, 160, 81-88; and Petty, et al., J Biolumin. Chemilumin. 1995, 10, 29-34). It has been called the “molecular unit of currency” when it comes to intracellular energy transfer.
as §1
In general terms: LDH leaks from cells whose membrane has failed.

Setting [9] is: read-out: CYP3A4 (Green substrate) IC50, Green substrate.

Molecules are shown by their SMILES. Read-outs that look alike come from different tables or passages of the source.

Chain of CYP2C19 (P33261 whole entry): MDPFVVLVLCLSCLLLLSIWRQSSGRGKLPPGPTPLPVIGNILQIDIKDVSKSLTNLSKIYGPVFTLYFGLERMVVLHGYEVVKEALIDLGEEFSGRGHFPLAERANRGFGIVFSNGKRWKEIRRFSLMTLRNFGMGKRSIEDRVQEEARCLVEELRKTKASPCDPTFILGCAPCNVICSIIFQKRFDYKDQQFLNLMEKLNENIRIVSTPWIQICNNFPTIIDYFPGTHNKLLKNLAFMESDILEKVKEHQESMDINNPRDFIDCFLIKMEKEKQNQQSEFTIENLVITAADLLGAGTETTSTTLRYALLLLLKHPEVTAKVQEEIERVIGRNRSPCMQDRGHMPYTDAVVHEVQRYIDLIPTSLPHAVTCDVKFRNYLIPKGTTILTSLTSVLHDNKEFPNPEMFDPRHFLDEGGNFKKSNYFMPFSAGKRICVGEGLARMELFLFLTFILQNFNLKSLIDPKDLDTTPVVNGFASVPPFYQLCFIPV
Chain of CYP2D6 (P10635 whole entry): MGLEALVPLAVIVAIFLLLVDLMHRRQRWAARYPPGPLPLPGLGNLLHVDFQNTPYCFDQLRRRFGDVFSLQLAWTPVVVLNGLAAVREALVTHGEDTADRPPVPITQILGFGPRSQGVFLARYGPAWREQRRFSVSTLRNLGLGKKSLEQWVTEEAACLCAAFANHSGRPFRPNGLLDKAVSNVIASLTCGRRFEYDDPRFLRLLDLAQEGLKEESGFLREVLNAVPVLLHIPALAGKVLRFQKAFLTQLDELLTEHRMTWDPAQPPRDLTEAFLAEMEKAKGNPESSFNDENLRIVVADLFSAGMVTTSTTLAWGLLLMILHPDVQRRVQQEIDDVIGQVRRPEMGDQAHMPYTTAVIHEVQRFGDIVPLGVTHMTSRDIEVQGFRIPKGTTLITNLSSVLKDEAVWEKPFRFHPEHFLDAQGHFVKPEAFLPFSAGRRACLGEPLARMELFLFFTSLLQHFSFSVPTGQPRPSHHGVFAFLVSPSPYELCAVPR
T1 sequence (Q8TDU6 whole entry): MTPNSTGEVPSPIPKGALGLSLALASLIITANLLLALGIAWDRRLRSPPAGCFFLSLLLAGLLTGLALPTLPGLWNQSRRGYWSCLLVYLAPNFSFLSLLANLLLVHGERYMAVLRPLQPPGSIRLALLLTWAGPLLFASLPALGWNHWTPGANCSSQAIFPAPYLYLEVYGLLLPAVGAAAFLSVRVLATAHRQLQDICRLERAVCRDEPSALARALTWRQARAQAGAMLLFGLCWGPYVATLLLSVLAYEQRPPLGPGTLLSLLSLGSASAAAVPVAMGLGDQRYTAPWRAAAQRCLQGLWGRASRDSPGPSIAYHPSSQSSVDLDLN
Chain of hERG potassium channel (Q12809 whole entry): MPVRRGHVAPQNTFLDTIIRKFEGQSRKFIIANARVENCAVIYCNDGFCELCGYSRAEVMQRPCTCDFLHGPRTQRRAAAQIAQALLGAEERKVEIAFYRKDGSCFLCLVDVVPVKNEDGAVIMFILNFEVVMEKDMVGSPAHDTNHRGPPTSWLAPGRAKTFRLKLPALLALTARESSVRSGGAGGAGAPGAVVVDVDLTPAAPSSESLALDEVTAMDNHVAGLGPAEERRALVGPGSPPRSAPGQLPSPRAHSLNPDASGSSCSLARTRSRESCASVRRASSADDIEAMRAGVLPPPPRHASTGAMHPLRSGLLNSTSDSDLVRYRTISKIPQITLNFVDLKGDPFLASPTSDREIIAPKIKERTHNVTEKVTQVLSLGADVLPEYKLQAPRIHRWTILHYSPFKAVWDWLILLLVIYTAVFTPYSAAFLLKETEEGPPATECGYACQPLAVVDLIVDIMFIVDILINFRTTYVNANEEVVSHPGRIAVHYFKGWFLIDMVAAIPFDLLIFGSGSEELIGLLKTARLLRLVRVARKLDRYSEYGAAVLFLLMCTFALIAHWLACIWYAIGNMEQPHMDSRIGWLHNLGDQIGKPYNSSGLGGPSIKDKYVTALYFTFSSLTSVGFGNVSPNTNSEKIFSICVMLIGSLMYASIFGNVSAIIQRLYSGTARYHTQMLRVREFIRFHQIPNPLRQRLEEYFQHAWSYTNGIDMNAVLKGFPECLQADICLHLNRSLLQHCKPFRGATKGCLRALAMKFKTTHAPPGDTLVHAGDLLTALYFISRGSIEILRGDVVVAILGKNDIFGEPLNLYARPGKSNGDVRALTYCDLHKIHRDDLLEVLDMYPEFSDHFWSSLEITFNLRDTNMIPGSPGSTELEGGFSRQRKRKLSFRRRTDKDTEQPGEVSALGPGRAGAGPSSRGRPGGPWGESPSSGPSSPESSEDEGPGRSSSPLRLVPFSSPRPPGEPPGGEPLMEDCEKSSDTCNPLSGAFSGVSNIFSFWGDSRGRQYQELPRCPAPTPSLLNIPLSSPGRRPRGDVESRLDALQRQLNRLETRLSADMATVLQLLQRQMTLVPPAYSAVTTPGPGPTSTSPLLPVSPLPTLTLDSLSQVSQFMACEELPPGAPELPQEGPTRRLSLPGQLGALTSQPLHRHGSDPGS
Chain of CYP3A4 (P08684 whole entry): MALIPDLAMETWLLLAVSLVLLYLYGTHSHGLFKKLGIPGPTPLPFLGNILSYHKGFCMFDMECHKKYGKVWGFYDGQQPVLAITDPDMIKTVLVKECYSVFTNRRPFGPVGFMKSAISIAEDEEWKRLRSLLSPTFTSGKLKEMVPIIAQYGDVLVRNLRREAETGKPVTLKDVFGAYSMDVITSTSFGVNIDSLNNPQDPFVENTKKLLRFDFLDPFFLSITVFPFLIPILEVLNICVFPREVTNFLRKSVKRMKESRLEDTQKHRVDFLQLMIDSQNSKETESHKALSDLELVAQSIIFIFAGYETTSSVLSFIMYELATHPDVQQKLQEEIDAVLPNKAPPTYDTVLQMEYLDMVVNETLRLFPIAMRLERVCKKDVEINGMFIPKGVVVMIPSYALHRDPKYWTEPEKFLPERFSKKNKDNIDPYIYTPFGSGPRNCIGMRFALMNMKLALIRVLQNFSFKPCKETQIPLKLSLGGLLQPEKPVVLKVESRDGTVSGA
Chain of CYP2E1 (P05181 whole entry): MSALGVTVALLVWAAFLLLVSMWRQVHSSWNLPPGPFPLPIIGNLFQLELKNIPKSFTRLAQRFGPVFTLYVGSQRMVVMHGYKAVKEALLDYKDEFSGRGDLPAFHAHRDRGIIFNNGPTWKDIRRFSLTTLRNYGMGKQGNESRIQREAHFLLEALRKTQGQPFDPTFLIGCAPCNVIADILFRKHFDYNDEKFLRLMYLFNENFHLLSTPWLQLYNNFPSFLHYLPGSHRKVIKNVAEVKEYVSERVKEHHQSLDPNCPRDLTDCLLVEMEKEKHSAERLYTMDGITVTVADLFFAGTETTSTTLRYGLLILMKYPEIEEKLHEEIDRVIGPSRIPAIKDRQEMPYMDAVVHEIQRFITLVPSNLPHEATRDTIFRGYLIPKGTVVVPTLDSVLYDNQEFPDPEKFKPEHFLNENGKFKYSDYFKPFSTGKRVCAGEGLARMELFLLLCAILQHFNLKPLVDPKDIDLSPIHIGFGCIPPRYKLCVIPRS
Chain of mTGR5 (Q80SS6 whole entry): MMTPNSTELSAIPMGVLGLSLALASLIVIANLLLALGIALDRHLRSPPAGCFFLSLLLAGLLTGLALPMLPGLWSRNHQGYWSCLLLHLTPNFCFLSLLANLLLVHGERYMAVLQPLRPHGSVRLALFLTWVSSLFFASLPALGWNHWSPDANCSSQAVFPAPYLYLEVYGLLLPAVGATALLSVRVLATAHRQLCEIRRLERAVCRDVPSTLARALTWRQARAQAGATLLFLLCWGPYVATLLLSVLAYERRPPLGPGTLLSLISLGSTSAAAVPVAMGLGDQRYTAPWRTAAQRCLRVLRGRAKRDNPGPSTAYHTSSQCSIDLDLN
Chain of CYP1A2 (P05177 whole entry, canonical isoform): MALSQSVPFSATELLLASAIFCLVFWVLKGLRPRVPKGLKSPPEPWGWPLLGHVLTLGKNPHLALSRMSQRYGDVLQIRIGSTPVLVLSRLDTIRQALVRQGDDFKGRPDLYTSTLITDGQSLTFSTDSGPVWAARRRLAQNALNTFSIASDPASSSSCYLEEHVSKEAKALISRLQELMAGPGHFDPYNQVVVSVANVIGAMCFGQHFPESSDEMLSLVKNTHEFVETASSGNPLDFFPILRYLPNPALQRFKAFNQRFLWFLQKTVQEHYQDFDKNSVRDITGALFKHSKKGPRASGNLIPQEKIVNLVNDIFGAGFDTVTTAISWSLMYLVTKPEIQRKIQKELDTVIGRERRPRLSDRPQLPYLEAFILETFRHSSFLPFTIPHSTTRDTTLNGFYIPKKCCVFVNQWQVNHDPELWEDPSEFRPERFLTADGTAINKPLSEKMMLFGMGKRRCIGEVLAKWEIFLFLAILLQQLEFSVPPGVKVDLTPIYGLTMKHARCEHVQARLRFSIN
Chain of rTGR5 (Q80T02 whole entry): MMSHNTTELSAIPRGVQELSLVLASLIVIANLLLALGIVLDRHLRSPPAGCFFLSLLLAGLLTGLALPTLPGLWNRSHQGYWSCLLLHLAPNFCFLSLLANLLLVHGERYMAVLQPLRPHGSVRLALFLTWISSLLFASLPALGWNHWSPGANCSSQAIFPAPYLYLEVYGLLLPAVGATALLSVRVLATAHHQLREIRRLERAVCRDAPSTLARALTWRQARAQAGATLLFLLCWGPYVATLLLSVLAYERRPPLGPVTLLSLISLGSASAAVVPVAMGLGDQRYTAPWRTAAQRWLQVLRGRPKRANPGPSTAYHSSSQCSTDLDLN

In the case of `CC[C@H]1[C@@H](O)C2C3CC[C@H]([C@H](C)CCOS(=O)(=O)[O-])[C@@]3(C)C[C@H](O)C2[C@@]2(C)CC[C@@H](O)C[C@@H]12.[Na+]` (stereo partly drawn) [Compound 3, 3α,7α,11β,23-tetrahydroxy-6α-ethyl-24-nor-5β-cholan-23-O-sulphate sodium salt], the EC50 on hTGR5 [1] came out at 83 ± 7 µM; on hTGR5 [2], 5 ± 1 µM; on mTGR5, 3 ± 0.5 µM. For the same compound, the “rTGR5 CHO EC50” value at rTGR5 was “No activity”. In addition, in the series on dTGR5, the “dTGR5 CHO EC50” value is on record as “No activity”. Besides, in [3], the “Activation of nuclear receptor panel, agonist mode” value (shortened to “Activation”) is on record as “Neither compound activated any of the receptors”. Further, the “Activity on nuclear receptor panel, antagonist mode” value (“Activity on nuclear receptor panel” below) in series [3] was “Neither compound activated any of the receptors”. Also, the “Modulation of FXR target genes BSEP, SHP, OSTβ and CYP7A1” value in series [4] is reported as “significantly bind to FXR in hepatic cells modulating FXR target genes”. For the same compound, the “ATP Content EC50” value in the series on HepG2 cells [5] (Table 5A) is “No toxicity”. For the same compound, the IC50 at CYP1A2, at CYP2C19, at CYP2C9, on CYP2D6, at CYP2E1 and at CYP3A4 was over 10 µM in each case. Also, the concentration for half-maximal inhibition (IC50) on CYP3A4 (setting [9]) is over 10 µM; on hERG potassium channel, over 100 µM. Also, the “hERG potassium channel inhibition (in words)” value on hERG potassium channel was “Compounds L1, 3, 5, 6 and 7 did not inhibit hERG potassium channel”. Also, the “CMC: Critical Micellar Concentration” value in series [6] is on record as 12.5 mM. Further, the “LogPA−: 1-octanol-water partition coefficient as ionized species” value (“LogPA− … as ionized species” below) in series [7] was 0.12.

On to `CC[C@H]1[C@@H](O)C2C3CC[C@H]([C@H](C)CCCOS(=O)(=O)[O-])[C@@]3(C)C[C@H](O)C2[C@@]2(C)CC[C@@H](O)C[C@@H]12.[Na+]` (stereo partly drawn) [Compound 5, 3α,7α,11β-Trihydroxy-6α-ethyl-5β-cholan-24-O-sulphate, sodium salt], for which the results for the EC50 at hTGR5 [1], on hTGR5 [2] and on mTGR5 were 78 ± 1 µM, 3 ± 1 µM and 4 ± 1 µM, respectively. Also, the “rTGR5 CHO EC50” value at rTGR5 is recorded as “No activity”. Also, in the series with dTGR5, the “dTGR5 CHO EC50” value is on record as “No activity”. Moreover, in series [3], the “Activation” value is reported as “Neither compound activated any of the receptors”. For the same compound, the “Activity on nuclear receptor panel” value in series [3] is given as “Neither compound activated any of the receptors”. The “Modulation of FXR target genes BSEP, SHP, OSTβ and CYP7A1” value in series [4] was “significantly bind to FXR in hepatic cells modulating FXR target genes”. Further, in the series with HepG2 cells [5] (Table 5A), the “ATP Content EC50” value is “No toxicity”. Moreover, the IC50 at CYP1A2, on CYP2C19, at CYP2C9, at CYP2D6, on CYP2E1 and at CYP3A4 was over 10 µM each time. Further, the IC50 on CYP3A4 (setting [9]) is over 10 µM; against hERG potassium channel, over 100 µM. In addition, the “hERG potassium channel inhibition (in words)” value at hERG potassium channel was “Compounds L1, 3, 5, 6 and 7 did not inhibit hERG potassium channel”. Moreover, the “CMC: Critical Micellar Concentration” value in series [6] was 8.5 mM. Also, in series [7], the “LogPA− … as ionized species” value stood at 0.61.

In the case of `CC[C@H]1[C@@H](O)C2C3CC[C@H]([C@H](C)CCC(=O)O)[C@@]3(C)C[C@H](O)C2[C@@]2(C)CC[C@@H](O)C[C@@H]12` (stereo partly drawn) [Compound L1, reference compound], at mTGR5, the “mTGR5 CHO EC50” value is on record as “No activity”. In addition, the “rTGR5 CHO EC50” value at rTGR5 is recorded as “No activity”. The “dTGR5 CHO EC50” value with dTGR5 is listed as “No activity”. Moreover, the “Activation” value in series [3] is “Neither compound activated any of the receptors”. Further, in series [3], the “Activity on nuclear receptor panel” value is recorded as “Neither compound activated any of the receptors”. Moreover, the “ATP Content EC50” value in the series on HepG2 cells [5] (Table 5B, HepG2) is “No toxicity”. The “Membrane Integrity (LDH measure) LC50” value with HepG2 cells [8] was “No toxicity”. Also, the IC50 on CYP1A2 is over 10 µM; on CYP2C19 (read-out: CYP2C19 IC50), over 10 µM; on CYP2C9 (read-out: CYP2C9 IC50), over 10 µM; on CYP2D6 (read-out: CYP2D6 IC50) it was over 10 µM; on CYP2E1 (read-out: CYP2E1 IC50) it was over 10 µM; on CYP3A4 (Blue substrate, read-out: CYP3A4 (Blue substrate) IC50) it was over 10 µM. In addition, the IC50 on CYP3A4 (Green substrate, read-out: CYP3A4 (Green substrate) IC50) is over 10 µM; on hERG potassium channel (read-out: hERG inhibition IC50, Table 7), over 100 µM. In addition, on hERG potassium channel, the “hERG potassium channel inhibition (in words)” value was “Compounds L1, 3, 5, 6 and 7 did not inhibit hERG potassium channel”. For the same compound, the “LogPA− … as ionized species” value in series [7] was determined as 0.84.

Usually EC50 stands for the concentration at which the effect is half-maximal. Higher therefore signals a need for much substance. What is called IC50 is the concentration at which inhibition is half-maximal.

The record behind these values is patent publication US11034717B2, “Farnesoid X receptor modulators” (Intercept Pharmaceuticals, Inc., priority 2015, dated 2021).
